Results from patent US20240270821A1, “GIP/GLP1/GCG TRI-RECEPTOR AGONISTS AND USES THEREOF” (priority 2023, published 2024).
Read-outs that look alike come from different tables or passages of the source. Starred links: 1 amine or outer side, 2 acyl side, 3 side chain; linkers in the order of their positions; H or OH if unused. Non-standard residues stand in square brackets, D forms with d. Residues, ends and D or L forms follow the SMILES beside them. Groups on a side chain read outwards from the residue. *: point of attachment. C20 diacid = O=C(O)CCCCCCCCCCCCCCCCCCC(=O)*; C18 diacid = O=C(O)CCCCCCCCCCCCCCCCC(=O)*; αMePhe(2-F) = C[C@](N)(Cc1ccccc1F)C(=O)O; γGlu = O=C(O)[C@H](CCC(=O)[*:2])N[*:1]; αMe4Pal = C[C@](N)(Cc1ccncc1)C(=O)O; αMeY = C[C@](N)(Cc1ccc(O)cc1)C(=O)O; αMeF = C[C@](N)(Cc1ccccc1)C(=O)O; 4Pal = N[C@@H](Cc1ccncc1)C(=O)O; αMeL = CC(C)C[C@](C)(N)C(=O)O; αMeS = C[C@](N)(CO)C(=O)O; Orn = NCCC[C@H](N)C(=O)O; AEEA = NCCOCCOCC(=O)O; Aib = CC(C)(N)C(=O)O

Key:
Type in all cases: cell-based
hGIPR [1] = molecular target: T1, hGIPR (Homo sapiens, UniProt P48546); test: Functional cAMP activity in the presence of 1% HSA
T1 sequence (P48546 22-466): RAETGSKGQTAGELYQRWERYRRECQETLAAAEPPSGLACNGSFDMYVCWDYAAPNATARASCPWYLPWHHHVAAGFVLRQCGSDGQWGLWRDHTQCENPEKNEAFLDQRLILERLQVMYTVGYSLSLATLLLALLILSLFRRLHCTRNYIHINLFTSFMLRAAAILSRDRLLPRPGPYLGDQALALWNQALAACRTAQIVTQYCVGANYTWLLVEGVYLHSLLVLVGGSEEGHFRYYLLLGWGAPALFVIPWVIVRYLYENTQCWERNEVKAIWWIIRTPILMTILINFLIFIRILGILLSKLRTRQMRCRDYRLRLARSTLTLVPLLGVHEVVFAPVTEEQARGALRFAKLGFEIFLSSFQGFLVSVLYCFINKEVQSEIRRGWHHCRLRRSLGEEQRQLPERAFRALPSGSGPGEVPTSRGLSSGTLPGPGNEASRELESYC

hGLP-1R [2] = molecular target: T2, hGLP-1R (Homo sapiens, UniProt P43220); test: Functional cAMP activity in the presence of 1% HSA
human GcgR = human GcgR (Homo sapiens, UniProt P47871); test: Functional cAMP activity in the presence of 1% HSA
hGIPR [3] = molecular target: T1, hGIPR; test: Functional cAMP activation in the presence of 0.1% casein (no HSA);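 as to Relative cAMP EC50, hGIPR: intracellular cAMP rise after 30 min at 37 °C read by HTRF against a standard curve, scaled between buffer alone (0%) and top control ligand concentration (100%), four-parameter fit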;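 as to Relative cAMP EC50, hGLP-1R: intracellular cAMP rise after 30 min at 37 °C read by HTRF, normalized between buffer only (0%) and maximal control ligand (100%), four-parameter variable-slope fit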;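 as to Relative cAMP EC50, hGcgR: intracellular cAMP rise after 30 min at 37 °C, read by HTRF against a cAMP standard curve, scaled from buffer only (0%) to maximal control ligand response (100%)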
hGLP-1R [4] = molecular target: T2, hGLP-1R; test: as above
hGcgR = hGcgR (Homo sapiens, UniProt P47871); test: as above;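 also: intracellular cAMP rise after 30 min at 37 °C, read by HTRF against a cAMP standard curve, scaled from buffer only (0%) to maximal control ligand response (100%)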
[5] = read-out: cAMP Rel EC50, hGLP-1R
[6] = read-out: Relative cAMP EC50, hGIPR
[7] = read-out: Relative cAMP EC50, hGLP-1R
[8] = read-out: Relative cAMP EC50, hGcgR
[9] = in the presence of 0.1% casein (no HSA), geometric mean, read-out: Relative cAMP EC50, hGIPR
[10] = in the presence of 0.1% casein (no HSA), geometric mean, read-out: Relative cAMP EC50, hGLP-1R
[11] = in the presence of 0.1% casein (no HSA), geometric mean, read-out: Relative cAMP EC50, hGcgR

Sequence of hGcgR (P47871 26-477): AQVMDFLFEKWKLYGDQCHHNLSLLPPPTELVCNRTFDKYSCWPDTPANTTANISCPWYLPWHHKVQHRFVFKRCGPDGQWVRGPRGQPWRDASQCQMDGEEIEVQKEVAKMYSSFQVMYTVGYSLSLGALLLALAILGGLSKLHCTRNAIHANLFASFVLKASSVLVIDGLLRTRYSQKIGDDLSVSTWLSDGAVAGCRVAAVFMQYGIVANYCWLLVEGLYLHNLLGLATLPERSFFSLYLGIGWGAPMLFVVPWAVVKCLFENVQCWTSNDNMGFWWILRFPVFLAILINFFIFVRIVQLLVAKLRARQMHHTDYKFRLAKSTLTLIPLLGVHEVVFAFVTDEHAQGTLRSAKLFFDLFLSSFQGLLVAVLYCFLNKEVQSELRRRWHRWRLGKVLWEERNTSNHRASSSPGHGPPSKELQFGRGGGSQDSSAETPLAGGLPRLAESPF
Sequence of human GcgR (P47871 26-477): as above
T2 sequence (P43220 24-463): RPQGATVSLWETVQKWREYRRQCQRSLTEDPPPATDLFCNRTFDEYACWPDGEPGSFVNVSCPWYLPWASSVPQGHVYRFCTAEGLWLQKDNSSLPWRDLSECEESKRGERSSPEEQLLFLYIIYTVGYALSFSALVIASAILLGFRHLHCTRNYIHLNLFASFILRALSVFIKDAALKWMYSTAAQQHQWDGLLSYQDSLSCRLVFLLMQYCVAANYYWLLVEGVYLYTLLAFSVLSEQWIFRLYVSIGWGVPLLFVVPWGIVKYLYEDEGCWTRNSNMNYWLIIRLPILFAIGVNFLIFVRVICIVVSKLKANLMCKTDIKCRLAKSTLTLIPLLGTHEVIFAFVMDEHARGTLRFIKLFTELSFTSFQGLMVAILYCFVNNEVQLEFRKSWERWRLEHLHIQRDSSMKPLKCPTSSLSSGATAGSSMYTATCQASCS

| Compound | EC50 (hGIPR [1]; read-out: cAMP Rel EC50, hGIPR) | EC50 (hGLP-1R [2]; [5]) | EC50 (human GcgR; read-out: cAMP Rel EC50, hGcgR) | EC50 (hGIPR [3]; [6]) | EC50 (hGLP-1R [4]; [7]) | EC50 (hGcgR; [8]) | EC50 (hGIPR [3]; [9]) | EC50 (hGLP-1R [4]; [10]) | EC50 (hGcgR; [11]) | EC50 (hGIPR [1]) | EC50 (hGLP-1R [2]) | EC50 (human GcgR) | EC50 (hGIPR [3]) | EC50 (hGLP-1R [4]) | EC50 (hGcgR) |
| --- | --- | --- | --- | --- | --- | --- | --- | --- | --- | --- | --- | --- | --- | --- | --- |
| CC[C@H](C)[C@H](NC(=O)[C@H](Cc1ccccc1)NC(=O)[C@H](C)NC(=O)C(C)(C)NC(=O)[C@H](CCC(N)=O)NC(=O)[C@H](C)NC(=O)[C@H](CCCCNC(=O)COCCOCCNC(=O)COCCOCCNC(=O)CC[C@H](NC(=O)CCCCCCCCCCCCCCCCC(=O)O)C(=O)O)NC(=O)[C@H](CCCCN)NC(=O)[C@H](CC(=O)O)NC(=O)[C@H](CC(C)C)NC(=O)[C@H](CC(C)C)NC(=O)[C@@H](NC(=O)[C@](C)(CO)NC(=O)[C@H](Cc1ccc(O)cc1)NC(=O)[C@H](CC(=O)O)NC(=O)[C@H](CO)NC(=O)[C@@H](NC(=O)[C@](C)(Cc1ccccc1F)NC(=O)[C@@H](NC(=O)CNC(=O)[C@H](CCC(N)=O)NC(=O)C(C)(C)NC(=O)[C@@H](N)Cc1ccc(O)cc1)[C@@H](C)O)[C@@H](C)O)[C@@H](C)CC)C(=O)N[C@@H](CCC(=O)O)C(=O)N[C@@H](Cc1ccc(O)cc1)C(=O)N[C@@H](CC(C)C)C(=O)N[C@@H](CCC(=O)O)C(=O)N[C@@H](CCC(=O)O)C(=O)NCC(=O)NCC(=O)N1CCC[C@H]1C(=O)N[C@@H](CO)C(=O)N[C@@H](CO)C(=O)NCC(=O)N[C@@H](C)C(=O)N1CCC[C@H]1C(=O)N1CCC[C@H]1C(=O)N1CCC[C@H]1C(=O)N[C@@H](CCC(=O)O)C(N)=O [Example 468] (H-Y[Aib]QGT[αMePhe(2-F)]TSDY[αMeS]ILLDKK([AEEA-AEEA-γGlu-C18 diacid])AQ[Aib]AFIEYLEEGGPSSGAPPPE-NH2) | 4.76 nM | 30.7 nM | 195 nM | 0.0222 nM | 0.466 nM | 1.95 nM | – | – | – | – | – | – | – | – | – |
| H-Y[Aib]QGTFTSD[4Pal]SK[αMeL]LDKK([AEEA-γGlu-C18 diacid])AQ[Aib]AFIE[αMe4Pal]LIE[Aib]GPSSGAPPPSGS-NH2 [Example 914] | 5.94 nM | 91.7 nM | 983 nM | – | – | – | 0.0582 nM | 0.888 nM | 10.6 nM | – | – | – | – | – | – |
| H-Y[Aib]QGT[αMeF]TSD[4Pal][αMeS]I[αMeL]LD[Orn]K([γGlu-γGlu-C18 diacid])AQ[αMe4Pal]EFI[dE][αMeY]LIEGGPSSGEPPPSGE-NH2 [Example 1171] | 0.718 nM | 52.9 nM | 233 nM | – | – | – | 0.00953 nM | 0.529 nM | 2.19 nM | – | – | – | – | – | – |
| H-Y[Aib]QGTFTSDYSI[αMeL]LDKQAAK([AEEA-AEEA-γGlu-C20 diacid])QFIEWLIEGGPSSGEPPPGAE-NH2 [Example 319] | – | – | – | – | – | – | – | – | – | 60.1 nM | 119 nM | 1650 nM | 0.485 nM | 0.947 nM | 4.81 nM |
| H-Y[Aib]QGTFTSDFS[Orn][αMeL]LDKK([AEEA-γGlu-C20 diacid])AQ[Aib]AFIEYLLAGGPSSGAPPPSGS[AEEA]-NH2 [Example 83] | 91.8 nM | 653 nM | 1270 nM | – | – | – | 0.185 nM | 2.85 nM | 10.2 nM | – | – | – | – | – | – |
| H-Y[Aib]QGT[αMePhe(2-F)]TSD[4Pal][αMeS]I[αMeL]LD[Orn]K([γGlu-γGlu-C18 diacid])AA[Aib]EFI[dE][αMeY]LVEGGPSSGEPPPSGS-NH2 [Example 695] | 0.772 nM | 19.5 nM | 164 nM | 0.0136 nM | 0.254 nM | 1.93 nM | – | – | – | – | – | – | – | – | – |
